The results in this text go back to ChEMBL document CHEMBL5032500, “Adenosine A2AR/A1R Antagonists Enabling Additional H3R Antagonism for the Treatment of Parkinson's Disease” (J Med Chem, 2021).

The test system of test [1] is SH-SY5Y. Briefly: Cytotoxicity against human SH-SY5Y cells assessed as remaining cell viability at 1000 nM incubated for 24 hrs. Format: functional.
Test [2] concerns the target T1, Adenosine receptor A2b (Homo sapiens, UniProt P29275).
T1 sequence (P29275 whole entry): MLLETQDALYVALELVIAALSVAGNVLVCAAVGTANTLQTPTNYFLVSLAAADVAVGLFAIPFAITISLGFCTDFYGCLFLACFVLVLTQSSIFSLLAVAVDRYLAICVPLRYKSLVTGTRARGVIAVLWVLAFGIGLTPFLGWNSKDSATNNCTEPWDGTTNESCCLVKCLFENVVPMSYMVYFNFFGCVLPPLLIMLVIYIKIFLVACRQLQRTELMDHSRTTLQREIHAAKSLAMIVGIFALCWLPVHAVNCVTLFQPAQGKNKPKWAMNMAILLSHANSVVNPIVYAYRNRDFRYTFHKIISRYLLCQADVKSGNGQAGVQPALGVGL
Briefly: Displacement of [3H]PSB-603 from human recombinant adenosine A2B receptor expressed in CHO cells by liquid scintillation counting analysis. In kind it is cell-based. In general terms: In a radioligand displacement assay an active substance lowers the binding of a labelled ligand.

Test [3] deals with Histamine H3 receptor (Homo sapiens, UniProt Q9Y5N1). Briefly: Displacement of [3H] N-alpha methylhistamine from human recombinant histamine H3 receptor expressed in HEK293 cells measured after 90 mins. In kind it is cell-based.
In test [4] the target is T2, Adenosine receptor A1 (Homo sapiens, UniProt P30542).
T2 sequence (P30542 whole entry): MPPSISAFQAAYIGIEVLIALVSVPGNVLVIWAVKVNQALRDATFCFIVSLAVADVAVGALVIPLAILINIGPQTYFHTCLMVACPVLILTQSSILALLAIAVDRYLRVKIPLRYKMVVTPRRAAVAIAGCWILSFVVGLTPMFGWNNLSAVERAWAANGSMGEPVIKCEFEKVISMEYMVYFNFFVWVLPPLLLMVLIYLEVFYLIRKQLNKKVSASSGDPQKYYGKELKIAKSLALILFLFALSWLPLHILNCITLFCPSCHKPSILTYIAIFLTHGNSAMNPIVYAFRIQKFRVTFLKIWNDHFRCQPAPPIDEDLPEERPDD
Briefly: Displacement of [3H]CCPA from human recombinant adenosine A1 receptor expressed in CHO cells by liquid scintillation counting analysis. In kind it is cell-based.

Test [5] has as its target T3, Adenosine receptor A3 (Homo sapiens, UniProt P0DMS8).
T3 sequence (P0DMS8 whole entry): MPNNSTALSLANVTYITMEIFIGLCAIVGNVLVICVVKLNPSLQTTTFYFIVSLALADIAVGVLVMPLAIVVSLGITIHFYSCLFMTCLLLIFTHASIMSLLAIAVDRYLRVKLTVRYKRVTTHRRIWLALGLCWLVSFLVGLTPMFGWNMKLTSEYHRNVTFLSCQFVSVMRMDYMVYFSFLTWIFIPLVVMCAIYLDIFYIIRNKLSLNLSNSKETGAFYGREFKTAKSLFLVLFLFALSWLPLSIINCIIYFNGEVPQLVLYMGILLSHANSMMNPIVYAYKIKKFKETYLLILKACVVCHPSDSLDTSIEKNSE
Briefly: Displacement of [3H]PSB-11 from human recombinant adenosine A3 receptor expressed in CHO cells by liquid scintillation counting analysis. In kind it is cell-based.

The target in test [6] is T4, Adenosine receptor A2a (Homo sapiens, UniProt P29274). Briefly: Displacement of [3H]MSX-2 from human recombinant adenosine A2A receptor expressed in CHO cells by liquid scintillation counting analysis. In kind it is cell-based.
For test [7], the target named is T4, Adenosine receptor A2a. Briefly: Displacement of [3H]MSX-2 from human recombinant adenosine A2A receptor expressed in CHO cells at 1 uM by liquid scintillation counting analysis. In kind it is cell-based.
Test [8] deals with T5, Adenosine receptor A2b (Homo sapiens) (UniProt P29275).
T5 sequence (whole entry): T1 sequence (P29275 whole entry)
Briefly: Displacement of [3H]PSB-603 from human recombinant adenosine A2B receptor expressed in CHO cells at 1 uM by liquid scintillation counting analysis. Format: cell-based.

Test [9] has as its target T6, Adenosine receptor A3 (Homo sapiens) (UniProt P0DMS8).
T6 sequence (whole entry): T3 sequence (P0DMS8 whole entry)
Briefly: Displacement of [3H]PSB-11 from human recombinant adenosine A3 receptor expressed in CHO cells at 1 uM by liquid scintillation counting analysis. Format: cell-based.

In test [10] the target is T7, Adenosine receptor A1 (Homo sapiens) (UniProt P30542).
T7 sequence (whole entry): T2 sequence (P30542 whole entry)
Briefly: Displacement of [3H]CCPA from human recombinant adenosine A1 receptor expressed in CHO cells at 1 uM by liquid scintillation counting analysis. In kind it is cell-based.

Test [11] deals with T1, Adenosine receptor A2b. Briefly: Binding affinity to human recombinant adenosine A2B receptor expressed in CHO cells using [3H]PSB-603 by functional activity assay. Format: cell-based.
The target of test [12] is T2, Adenosine receptor A1. Briefly: Binding affinity to human recombinant adenosine A1 receptor expressed in CHO cells using [3H]CCPA by functional activity assay. Format: cell-based.

Molecules are shown by their SMILES. Bounds are passed on as bounds.

Sequence of Histamine H3 receptor (Q9Y5N1 whole entry): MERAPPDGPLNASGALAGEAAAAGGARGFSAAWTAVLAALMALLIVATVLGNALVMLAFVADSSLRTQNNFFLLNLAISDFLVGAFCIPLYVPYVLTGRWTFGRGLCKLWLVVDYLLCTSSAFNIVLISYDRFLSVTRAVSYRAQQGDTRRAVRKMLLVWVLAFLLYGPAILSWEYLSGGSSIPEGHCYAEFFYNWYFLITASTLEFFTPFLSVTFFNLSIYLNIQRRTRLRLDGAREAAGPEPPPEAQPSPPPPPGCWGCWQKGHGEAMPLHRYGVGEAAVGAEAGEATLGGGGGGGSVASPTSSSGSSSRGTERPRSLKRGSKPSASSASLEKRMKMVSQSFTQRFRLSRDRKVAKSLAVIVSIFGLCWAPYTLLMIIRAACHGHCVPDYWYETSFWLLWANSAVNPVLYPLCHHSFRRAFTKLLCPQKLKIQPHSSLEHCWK
T4 sequence (P29274 whole entry): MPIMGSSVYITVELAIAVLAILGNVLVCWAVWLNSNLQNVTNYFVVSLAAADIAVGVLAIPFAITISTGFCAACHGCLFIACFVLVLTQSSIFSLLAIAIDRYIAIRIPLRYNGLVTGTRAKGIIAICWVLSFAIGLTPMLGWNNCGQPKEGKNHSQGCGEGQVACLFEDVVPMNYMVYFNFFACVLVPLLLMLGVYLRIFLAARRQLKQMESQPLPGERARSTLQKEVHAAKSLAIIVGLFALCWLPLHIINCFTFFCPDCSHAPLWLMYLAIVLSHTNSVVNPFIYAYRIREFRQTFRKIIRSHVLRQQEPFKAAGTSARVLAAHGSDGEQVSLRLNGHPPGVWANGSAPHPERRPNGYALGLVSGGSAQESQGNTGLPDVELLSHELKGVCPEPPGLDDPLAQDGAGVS

With `Nc1nc(-c2ccccc2)c2c(n1)-c1cc(OCCCN3CCCCC3)ccc1C2`, the Activity in [1] was more than 75%. Further, the inhibitory constant (Ki) (in general, the equilibrium dissociation constant of an inhibitor or competing ligand from its target) in test [2] was determined as 58.1 nM; in [3] it was 4.5 nM; in [4], 18.7 nM; in [5], 231 nM; in test [6] it was 4.85 nM.

On to `Nc1nc(-c2ccccc2)c2c(n1)-c1cc(OCCCN3CCCC3)ccc1C2=O`, for which the Ki in test [2] is 47.5 nM; in test [3], 17 nM; in test [4], 12.6 nM; in test [5], 199 nM; in [6] it was 6.24 nM.

For the compound `Nc1nc(-c2ccccc2)c2c(n1)-c1ccc(OCCCN3CCCC3)cc1C2`, in [1], the Activity is reported as more than 75%. For the same compound, the figures for the inhibition in test [7] (filed as antagonist), in test [8] and in test [9] were 40%, 25% and 35%, respectively. In addition, the Ki in [2] was more than 1000 nM; in [3], 11 nM; in [4], 828 nM; in test [5] it was more than 1000 nM; in test [6] it was more than 1000 nM.

As for `Nc1nc(-c2ccc(OCCCN3CCCCC3)cc2)c2c(n1)-c1ccc(OCCCN3CCCCC3)cc1C2`, the inhibition (commonly the relative decrease from the control value, in per cent) in test [8] came out at 13%; in [10], 23%; in test [9] (filed as antagonist) it was 50%. Also, the inhibition constant (Ki) is more than 1000 nM in test [2]; 0.6 nM in test [3]; more than 1000 nM in [4]; more than 1000 nM in [5]; 941 nM in [6].

For the compound `Nc1nc(-c2ccccc2)c2c(n1)-c1ccc(OCCCN3CCCCC3)cc1C2=O`, the Ki in test [2] was 114 nM; in test [3] it was 36 nM; in test [4], 367 nM; in test [5], more than 1000 nM; in [6] it was 142 nM. For the same compound, the inhibition in test [9] is 12%.

As to `Nc1nc(-c2ccccc2)c2c(n1)-c1ccc(OCCCN3CCCC3)cc1C2=O`, the inhibitory constant (Ki) is 180 nM in test [2]; 31 nM in test [3]; 129 nM in [4]; 846 nM in test [5]; 104 nM in [6].

On to `Nc1nc(-c2ccc(OCCCN3CCCCC3)cc2)c2c(n1)-c1ccccc1C2=O`, for which the inhibition constant Ki is 331 nM in test [2]; 0.28 nM in [3]; 133 nM in test [4]; more than 1000 nM in [5]; 35.5 nM in test [6]. Besides, the inhibition in test [9] turned out to be 33%.

For `Nc1nc(-c2ccccc2)c2c(n1)-c1ccc(OCCCN3CCCCC3)cc1C2`, the inhibition in test [7] amounted to 34%; in test [8], 34%; in test [10] it was 24%; in test [9], 39%. The Ki in test [2] is more than 1000 nM; in test [3], 2.3 nM; in test [4] it was more than 1000 nM; in [5] it was more than 1000 nM; in [6], more than 1000 nM.

Turning to `Nc1nc(-c2ccc(OCCCN3CCCCC3)cc2)c2c(n1)-c1ccc(OCCCN3CCCCC3)cc1C2=O`, the inhibition in test [8] was 15%; in test [10] (filed as antagonist), 44%; in [9], 32%. Further, the Ki is more than 1000 nM in [2]; 0.31 nM in [3]; not below 1000 nM in test [4]; more than 1000 nM in test [5]; 203 nM in test [6].

With `Nc1nc(-c2ccccc2)c2c(n1)-c1cc(OCCN3CCOCC3)ccc1C2=O`, the EC50 (commonly the concentration at which the effect is half-maximal) in [11] was found to be 230 nM; in test [12] it was 48 nM. In addition, the Ki in [5] was 430 nM.

`O=C(c1ccc(OCCCc2c[nH]cn2)cc1)C1CC1`: the inhibition was -1% in [7], 8% in [8], -6% in test [10] and 3% in [9].

Regarding `Nc1nc(-c2ccc(OCCCN3CCCCC3)cc2)c2c(n1)-c1ccccc1C2`, the inhibition in test [8] came out at 28%; in test [9], 24%. In addition, the inhibitory constant (Ki) is more than 1000 nM in test [2]; 0.49 nM in test [3]; 2510 nM in test [4]; more than 1000 nM in test [5]; 717 nM in test [6].

Consider `O=C(c1ccc(OCCCN2CCCCC2)cc1)C1CC1`, for which the inhibition in test [7] was -3%; in [8], 0%; in [10], -5%; in [9], -2%. The Ki in test [2], in test [4], in [5] and in test [6] was more than 1000 nM throughout.

Consider `O=C(c1ccc(OCCCc2cnc[nH]2)cc1)C1CC1` [CIPROXIFAN], for which the Ki in test [2], in test [4], in [5] and in [6] was more than 1000 nM in each case.

Consider `COCCOc1ccc(N2CCN(CCn3ncc4c3nc(N)n3nc(-c5ccco5)nc43)CC2)cc1` [PRELADENANT], for which the inhibition constant (Ki) in [2] and in test [5] was more than 1000 nM throughout.
